We go through two compounds from ChEMBL document CHEMBL1141428, “Polyisoprenylated benzoylphloroglucinol derivatives from Hypericum sampsonii” (2007).

This experiment has as its system Staphylococcus aureus. In words: Antibacterial activity against multidrug-resistant Staphylococcus aureus 1199B overexpressing NorA after 18 hrs. It counts as functional.

≈ marks a conversion by molar mass, not a printed value.

`CC(C)=CC[C@H]1C[C@]2(CC=C(C)C)C(=O)C(C(=O)c3ccccc3)=C(O)[C@](CC=C(C)C)(C2=O)C1(C)C` had an MIC of 7.3 µM (≈ 3.67 µg/mL). Consider `CCn1cc(C(=O)O)c(=O)c2cc(F)c(N3CCNCC3)cc21` [NORFLOXACIN], for which the MIC is 100 µM (≈ 31.9 µg/mL).

The MIC is the smallest concentration in the dilution series that meets the test's criterion for growth inhibition. High values mean a need for much substance, low ones inhibition by little substance.
